From paper PMC7508162 (Frontiers in Pharmacology, 2020)

These molecules were tested against T1, NPP1 (Homo sapiens, UniProt P22413) (assay: NPP1 assay with p-Nph-5'-TMP as substrate). Details: soluble NPP1; 400 µM p-Nph-5'-TMP; read-out: Ki ± SEM.
T1 construct: the catalytic domains of the enzymes were amplified and sub-cloned into the expression vector pACGP67 A/B; made in house; host or cells: Sf9 insect cells
T1 sequence (P22413 98-925 limits assumed): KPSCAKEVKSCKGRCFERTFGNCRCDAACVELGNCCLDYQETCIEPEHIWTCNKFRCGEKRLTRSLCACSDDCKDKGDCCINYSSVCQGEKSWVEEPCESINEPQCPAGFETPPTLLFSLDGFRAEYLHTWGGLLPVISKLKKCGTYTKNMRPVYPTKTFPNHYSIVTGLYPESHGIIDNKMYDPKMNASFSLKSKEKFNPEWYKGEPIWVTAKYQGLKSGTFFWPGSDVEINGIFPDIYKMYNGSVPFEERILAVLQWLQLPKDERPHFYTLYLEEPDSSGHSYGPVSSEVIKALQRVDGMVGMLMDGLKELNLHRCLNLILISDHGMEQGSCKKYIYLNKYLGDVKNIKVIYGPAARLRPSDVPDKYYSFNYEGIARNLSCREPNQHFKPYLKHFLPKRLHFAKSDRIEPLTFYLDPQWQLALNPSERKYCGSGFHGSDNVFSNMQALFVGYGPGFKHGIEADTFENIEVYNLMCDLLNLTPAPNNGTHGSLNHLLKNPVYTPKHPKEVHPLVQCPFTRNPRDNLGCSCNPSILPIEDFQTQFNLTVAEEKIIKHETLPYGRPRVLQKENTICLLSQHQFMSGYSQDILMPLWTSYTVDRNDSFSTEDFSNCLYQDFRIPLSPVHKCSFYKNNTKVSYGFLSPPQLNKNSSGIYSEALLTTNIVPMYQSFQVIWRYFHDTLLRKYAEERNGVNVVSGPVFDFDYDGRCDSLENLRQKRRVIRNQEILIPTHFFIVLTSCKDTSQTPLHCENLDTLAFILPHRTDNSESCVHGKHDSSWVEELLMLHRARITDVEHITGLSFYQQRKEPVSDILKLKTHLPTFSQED
Type: biochemical
Text: The cDNAs of the human enzymes NPP1, NPP3, NPP5, CD38 and CD73 (Genbank accession no. NM_006258, NM_005021, NM_021572, NM_ 001775, and NM_002526, respectively) were obtained from Origene (Rockville, USA). Soluble enzymes were produced as previously reported with some modifications ([Lee et al., 2015]; [Junker et al., 2019]). Briefly, the catalytic domains of the enzymes were amplified and sub-cloned into the expression vector pACGP67 A/B modified with the addition of 9 x histidine tag (His-tag) at the C-terminus (except for NPP1). The plasmids were transfected in Sf9 insect cells using Cellfectin™ II Reagent (Thermo Fisher Scientific, MA, USA) and ProEasy™ baculovirus linearized DNA (Cat.#A10S, AB Vector, LLC). Protein expression was conducted for 48 h at 27°C. The signal peptide sequence of the expression vector shuttled the proteins into the supernatant. The supernatant medium was collected, and the enzymes were purified using HisPur™ Ni^2+-NTA spin columns according to the manufacturer’s protocol. The protein concentration was determined by the method previously described by [Lowry et al. (1951)].
Inhibition of NPP1 was determined as previously described ([Lee et al., 2017b]). p-Nitrophenyl-5’-thymidine monophosphate (p-Nph-5’-TMP) was used as an artificial substrate which results in the formation of the p-nitrophenolate anion with an absorption maximum of 400 nm. Purified soluble NPP1 [0.36 µg, expressed in Sf9 insect cells as previously described ([Lee et al., 2015])] was mixed with test compound (20 µM final concentration for initial screening, 0.1–200 µM for determining concentration-dependent inhibition curves), 2% DMSO and 400 µM of p-Nph-5’-TMP as a substrate in a final volume of 100 µl. The mixture was incubated for 30 min at 37°C with gentle shaking, and the enzyme reaction was terminated by the addition of 20 µl of 1 M NaOH. The absorption was measured at 405 nm using a BMG PheraStar FS plate reader (BMG Labtech GmbH, Ortenberg, Germany).

| SMILES | Ki |
| --- | --- |
| CCCCNc1nc2c(NC)ncnc2n1[C@@H]1O[C@H](COP(=O)(O)OP(=O)(O)C(Br)(Br)P(=O)(O)O)[C@@H](O)[C@H]1O [Compound 33, (Dibromo((((((2R,3S,4R,5R)-5-(8-(butylamino)-6-(methylamino)-9H-purin-9-yl)-3,4-dihydroxy-tetrahydrofuran-2-yl)methoxy)(hydroxy)phosphoryl)oxy)-(hydroxy)phosphoryl)methyl)-phosphonic Acid] | 7.68 ± 5.4 µM |
| CCCCSc1nc2c(N)ncnc2n1[C@@H]1O[C@H](COP(=O)(O)OP(=O)(O)C(Br)(Br)P(=O)(O)O)[C@@H](O)[C@H]1O [Compound 31, (((((((2R,3S,4R,5R)-5-(6-Amino-8-(butylthio)-9H-purin-9-yl)-3,4-dihydroxytetrahydrofuran-2-yl)methoxy)(hydroxy)-phosphoryl)oxy)(hydroxy)phosphoryl)dibromomethyl)-phosphonic Acid] | 5.17 ± 1.75 µM |
| CCN(CC)c1ncnc2c1ncn2[C@@H]1O[C@H](COP(=O)(O)OP(=O)(O)C(Br)(Br)P(=O)(O)O)[C@@H](O)[C@H]1O [ARL67156, (Dibromo((((((2R,3S,4R,5R)-5-(6-(diethylamino)-9H-purin-9-yl)-3,4-dihydroxytetrahydrofuran-2-yl)methoxy)-(hydroxy)-phosphoryl)oxy)(hydroxy)phosphoryl)methyl)-phosphonic Acid, reference compound] | 4.41 ± 3.53 µM |
